Reference: PubChem BioAssay (NCI)
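Values below derive from 48-hour exposures of cells grown in 96-well plates, with endpoints linearly interpolated between the two concentrations bracketing the appropriate inhibition level. At the GI50, growth is halved. TGI denotes the concentration required for complete inhibition of growth.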

Legend:
Assay in all cases: DTP human tumour cell line panel, 48 h
K-562 leukemia = system: K-562 leukemia
SF-295 CNS = system: SF-295 CNS
IGROV1 ovarian = system: IGROV1 ovarian
786-0 renal = system: 786-0 renal
NCI-H460 lung = system: NCI-H460 lung
RPMI-8226 leukemia = system: RPMI-8226 leukemia
KM20L2 colon = system: KM20L2 colon
A498 renal = system: A498 renal
LXFL 529 NSCLC = system: LXFL 529 NSCLC
SK-MEL-28 melanoma = system: SK-MEL-28 melanoma
T-47D breast = system: T-47D breast
M19-MEL melanoma = system: M19-MEL melanoma

Row | SMILES | TGI (K-562 leukemia) | TGI (SF-295 CNS) | TGI (IGROV1 ovarian) | TGI (786-0 renal) | TGI (NCI-H460 lung) | TGI (RPMI-8226 leukemia) | TGI (KM20L2 colon) | TGI (A498 renal) | TGI (LXFL 529 NSCLC) | TGI (SK-MEL-28 melanoma) | TGI (T-47D breast) | TGI (M19-MEL melanoma) | GI50 (K-562 leukemia) | GI50 (SF-295 CNS) | GI50 (IGROV1 ovarian) | GI50 (NCI-H460 lung) | GI50 (RPMI-8226 leukemia) | GI50 (A498 renal) | GI50 (T-47D breast) | GI50 (SK-MEL-28 melanoma)
1 | O=C(O)\C=C/C=C/C=C/C=C/C(=O)O | > 100 µM | > 100 µM | > 100 µM | > 100 µM | > 100 µM | > 100 µM | > 100 µM | > 100 µM | > 100 µM | > 100 µM |  |  |  |  |  |  |  |  |  | 
2 | Nc1ccc([As](=O)(O)O)cc1 | > 100 µM | > 100 µM | > 100 µM | > 100 µM | > 100 µM |  |  | > 100 µM |  | > 100 µM | > 100 µM |  |  |  |  |  |  |  |  | 
3 | NS(=O)(=O)c1ccc(C(=O)O)cc1 | > 100 µM | > 100 µM | > 100 µM | > 100 µM |  | > 100 µM |  | > 100 µM |  | > 100 µM | > 100 µM |  |  |  |  |  |  |  |  | 
4 | CC(C)(c1ccccc1)c1ccc(Oc2ccc3c(c2)-c2nc-3nc3[nH]c(nc4nc(nc5[nH]c(n2)c2ccc(Oc6ccc(C(C)(C)c7ccccc7)cc6)cc52)-c2cc(Oc5ccc(C(C)(C)c6ccccc6)cc5)ccc2-4)c2ccc(Oc4ccc(C(C)(C)c5ccccc5)cc4)cc32)cc1 | > 100 µM |  | > 100 µM | > 100 µM | > 100 µM | > 100 µM | > 100 µM | > 100 µM | > 100 µM | > 100 µM |  | > 100 µM |  |  |  |  |  |  |  | 
5 | Cn1ncc2c(=O)[nH]c(-c3ccccc3)nc21 | > 100 µM | > 100 µM | > 100 µM |  |  | > 100 µM | > 100 µM |  |  | > 100 µM |  |  |  |  |  |  |  |  |  | 
6 | CCCCCCCCCCCCCCC(C(=O)[O-])[n+]1ccccc1 (stereo not given) | > 100 µM | > 100 µM | > 100 µM | > 100 µM | > 100 µM | > 100 µM |  | > 100 µM |  | > 100 µM | > 100 µM |  |  |  |  |  |  |  |  | 
7 | Cc1cccc(NC(N)=S)c1 | > 100 µM |  |  |  | > 100 µM |  |  | > 100 µM | > 100 µM | > 100 µM |  | > 100 µM |  |  |  |  |  |  |  | 
8 | N=C(N)SC(c1ccccc1)c1ccccc1 | 85.3 µM | 34.7 µM | 42.8 µM | 25.2 µM | 37.1 µM | 31.7 µM |  | 36.6 µM |  | 18.6 µM | 22.6 µM |  |  |  |  |  |  |  |  | 
9 | CC1(C)CCCC2(C)C3=C(CCC12)C(=O)OC3 (stereo not given) |  | > 100 µM | > 100 µM | > 100 µM |  | 68.5 µM |  | > 100 µM |  | > 100 µM | > 100 µM |  |  |  |  |  |  |  |  | 
10 | O=C(Nc1ccc(-n2ccc3c(NC(=O)c4ccccc4)ncnc32)cc1)Nc1ccc(Cl)c(C(F)(F)F)c1 | 5.04 µM | 3.38 µM | 3.91 µM |  | 3.06 µM | 2.84 µM |  | 3.65 µM |  | 4.46 µM | 5.73 µM |  | 1.45 µM | 1.41 µM | 1.77 µM | 1.35 µM | 1.03 µM | 1.51 µM | 2.27 µM | 1.93 µM
11 | Cc1cc(N2CCCCC2)nc(NCc2cc(Nc3ccnc4cc(Cl)ccc34)ccc2F)n1 | 5.17 µM | 2.7 µM |  |  | 4.17 µM | 4.55 µM |  | 0.999 µM |  |  | 2.99 µM |  | 2.07 µM | 1.32 µM |  | 1.99 µM | 1.88 µM | 0.178 µM | 1.26 µM | 
12 | O=C1CC(c2ccccc2)NCCCCN2CC(CN1)C(C(O)c1ccccc1)C2=O (stereo not given) |  | > 100 µM | > 100 µM | > 100 µM | > 100 µM |  |  | > 100 µM |  | > 100 µM | > 100 µM |  |  |  |  |  |  |  |  | 
13 | CC1(C)CCc2cc3c(cc2O1)OC(C)(C)CC3=O | > 100 µM | > 100 µM | > 100 µM |  | > 100 µM | > 100 µM |  |  | > 100 µM |  |  | > 100 µM |  |  |  |  |  |  |  | 
